Data published in ChEMBL document CHEMBL1130147, “Dihydrobenzofuran analogues of hallucinogens. 4. Mescaline derivatives” (J Med Chem, 1997).

What was measured:
[1] = biological target: T1, 5-hydroxytryptamine receptor 1A (Rattus norvegicus, UniProt P19327); experiment: Ability to displace [3H]-8-OH-DPAT from rat hippocampal homogenate 5-hydroxytryptamine 1A receptor; assay type: tissue-based, Hippocampus
T1 sequence (P19327 whole entry): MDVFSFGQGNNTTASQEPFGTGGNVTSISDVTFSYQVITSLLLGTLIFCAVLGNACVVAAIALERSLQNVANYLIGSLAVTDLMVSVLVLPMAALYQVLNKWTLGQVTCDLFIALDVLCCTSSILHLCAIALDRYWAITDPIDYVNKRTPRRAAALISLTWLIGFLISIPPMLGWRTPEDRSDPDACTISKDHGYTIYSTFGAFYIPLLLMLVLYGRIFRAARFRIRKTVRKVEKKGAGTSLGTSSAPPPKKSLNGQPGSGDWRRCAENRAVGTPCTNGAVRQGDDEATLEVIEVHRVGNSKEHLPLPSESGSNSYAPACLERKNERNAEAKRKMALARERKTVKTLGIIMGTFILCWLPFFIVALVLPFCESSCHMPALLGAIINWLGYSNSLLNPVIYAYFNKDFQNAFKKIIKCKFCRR

[2] = biological target: T2, 5-hydroxytryptamine receptor 2A (Rattus norvegicus, UniProt P14842); experiment: Effect on phosphoinositide hydrolysis in NIH 3T3 fibroblast expressing 5-hydroxytryptamine 2A receptor; assay type: functional
[3] = biological target: T2, 5-hydroxytryptamine receptor 2A; experiment: Ability to displace [3H]ketanserin from rat cortical homogenate 5-hydroxytryptamine 2A receptor
[4] = biological target: T3, 5-hydroxytryptamine receptor 2B (Homo sapiens, UniProt P41595); experiment: Agonist activity at cloned human 5-hydroxytryptamine 2B receptor using [3H]5-HT radioligand; assay type: binding
[5] = biological target: T3, 5-hydroxytryptamine receptor 2B; experiment: Antagonist activity at cloned human 5-hydroxytryptamine 2B receptor using [3H]rauwolscine radioligand
[6] = biological target: T4, 5-hydroxytryptamine receptor 2C (Rattus norvegicus, UniProt P08909); experiment: Effect on phosphoinositide hydrolysis in NIH 3T3 fibroblast 5-hydroxytryptamine 2C receptor; assay type: functional
T4 sequence (P08909 whole entry): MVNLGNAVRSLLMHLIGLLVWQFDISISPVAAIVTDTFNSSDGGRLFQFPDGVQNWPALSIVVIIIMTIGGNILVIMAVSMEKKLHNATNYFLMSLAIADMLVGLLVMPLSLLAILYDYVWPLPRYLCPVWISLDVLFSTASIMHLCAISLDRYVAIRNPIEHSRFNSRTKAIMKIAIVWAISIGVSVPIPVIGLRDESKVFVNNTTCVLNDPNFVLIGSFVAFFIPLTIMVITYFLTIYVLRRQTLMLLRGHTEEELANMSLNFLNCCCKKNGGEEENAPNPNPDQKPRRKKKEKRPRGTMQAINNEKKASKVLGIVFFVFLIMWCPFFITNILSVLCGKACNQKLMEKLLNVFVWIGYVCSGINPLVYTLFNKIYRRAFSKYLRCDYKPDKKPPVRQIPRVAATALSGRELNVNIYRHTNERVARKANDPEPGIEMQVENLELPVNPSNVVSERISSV

[7] = biological target: T5, 5-hydroxytryptamine receptor 2C (Homo sapiens, UniProt P28335); experiment: Agonist activity at cloned human 5-hydroxytryptamine 2C receptor using [125I]DOI radioligand; assay type: binding
T5 sequence (P28335 whole entry): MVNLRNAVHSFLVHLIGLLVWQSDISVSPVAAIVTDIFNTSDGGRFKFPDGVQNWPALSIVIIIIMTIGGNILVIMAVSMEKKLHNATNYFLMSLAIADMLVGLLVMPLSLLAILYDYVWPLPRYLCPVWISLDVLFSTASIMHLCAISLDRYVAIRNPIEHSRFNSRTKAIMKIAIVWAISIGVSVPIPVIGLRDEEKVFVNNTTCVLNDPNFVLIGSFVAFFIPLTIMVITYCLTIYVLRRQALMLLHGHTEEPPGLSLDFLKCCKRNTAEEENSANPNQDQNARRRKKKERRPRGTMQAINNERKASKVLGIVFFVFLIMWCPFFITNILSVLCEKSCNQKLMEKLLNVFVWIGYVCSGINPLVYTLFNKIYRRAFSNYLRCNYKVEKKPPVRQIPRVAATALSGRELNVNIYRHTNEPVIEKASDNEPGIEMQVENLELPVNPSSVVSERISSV

[8] = biological target: T5, 5-hydroxytryptamine receptor 2C; experiment: Antagonist activity at cloned human 5-hydroxytryptamine 2C receptor using [3H]mesulergine radioligand
[9] = species on record: Rattus norvegicus; experiment: Effective dose showing 29% Drug Discrimination in LSD trained rats (number of animals tested = 8-12); assay type: functional
[10] = species on record: Rattus norvegicus; experiment: Ability to inhibit accumulation [3H]5-HT in rat whole brain synaptosomes; assay type: functional
[11] = species on record: Rattus norvegicus; experiment: Ability to inhibit accumulation [3H]DA in rat whole brain synaptosomes; assay type: functional
[12] = biological target: T6, 5-hydroxytryptamine receptor 2A (Homo sapiens, UniProt P28223); experiment: Agonist activity at cloned human 5-hydroxytryptamine 2A receptor using [125I]DOI radioligand
[13] = biological target: T6, 5-hydroxytryptamine receptor 2A; experiment: Antagonist activity at cloned human 5-hydroxytryptamine 2A receptor using [3H]-Ketanserin radioligand
[14] = biological target: T2, 5-hydroxytryptamine receptor 2A; experiment: Effect on phosphoinositide hydrolysis in NIH 3T3 fibroblast 5-hydroxytryptamine 2A receptor; assay type: functional
[15] = biological target: T3, 5-hydroxytryptamine receptor 2B; experiment: Antagonist activity at cloned human 5-hydroxytryptamine 2B receptor using [3H]- rauwolscine radioligand
[16] = species on record: Rattus norvegicus; experiment: Effective dose showing 50% Drug Discrimination in LSD trained rats (number of animals tested = 8-12); assay type: functional
[17] = Partition coefficient (logP); assay type: physicochemical; conditions: octanol/water

T2 sequence (P14842 whole entry): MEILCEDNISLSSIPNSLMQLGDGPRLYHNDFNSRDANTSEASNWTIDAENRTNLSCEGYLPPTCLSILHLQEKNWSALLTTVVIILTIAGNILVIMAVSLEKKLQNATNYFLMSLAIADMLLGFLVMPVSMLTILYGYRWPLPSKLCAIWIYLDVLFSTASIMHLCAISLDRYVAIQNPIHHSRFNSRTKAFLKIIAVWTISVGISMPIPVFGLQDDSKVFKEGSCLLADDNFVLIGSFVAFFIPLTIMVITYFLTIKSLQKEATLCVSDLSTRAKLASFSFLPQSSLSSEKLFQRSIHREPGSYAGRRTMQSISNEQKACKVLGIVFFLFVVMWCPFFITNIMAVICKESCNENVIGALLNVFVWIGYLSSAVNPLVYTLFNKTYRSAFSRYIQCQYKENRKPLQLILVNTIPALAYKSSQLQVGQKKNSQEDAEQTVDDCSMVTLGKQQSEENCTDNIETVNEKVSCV
T3 sequence (P41595 whole entry): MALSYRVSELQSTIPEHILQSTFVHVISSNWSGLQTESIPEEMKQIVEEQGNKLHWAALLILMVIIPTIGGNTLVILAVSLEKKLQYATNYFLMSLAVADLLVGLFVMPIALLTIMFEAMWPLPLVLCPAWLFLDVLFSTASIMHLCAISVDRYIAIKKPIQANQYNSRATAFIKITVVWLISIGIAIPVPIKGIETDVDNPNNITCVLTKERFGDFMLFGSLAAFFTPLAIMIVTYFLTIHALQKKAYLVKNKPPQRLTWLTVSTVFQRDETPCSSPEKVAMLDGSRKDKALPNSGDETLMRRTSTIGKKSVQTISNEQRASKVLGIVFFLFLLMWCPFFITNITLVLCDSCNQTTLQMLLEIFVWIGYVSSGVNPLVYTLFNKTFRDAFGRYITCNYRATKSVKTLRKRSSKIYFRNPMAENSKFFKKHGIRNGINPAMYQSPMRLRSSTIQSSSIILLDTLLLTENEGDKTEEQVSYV
T6 sequence (P28223 whole entry): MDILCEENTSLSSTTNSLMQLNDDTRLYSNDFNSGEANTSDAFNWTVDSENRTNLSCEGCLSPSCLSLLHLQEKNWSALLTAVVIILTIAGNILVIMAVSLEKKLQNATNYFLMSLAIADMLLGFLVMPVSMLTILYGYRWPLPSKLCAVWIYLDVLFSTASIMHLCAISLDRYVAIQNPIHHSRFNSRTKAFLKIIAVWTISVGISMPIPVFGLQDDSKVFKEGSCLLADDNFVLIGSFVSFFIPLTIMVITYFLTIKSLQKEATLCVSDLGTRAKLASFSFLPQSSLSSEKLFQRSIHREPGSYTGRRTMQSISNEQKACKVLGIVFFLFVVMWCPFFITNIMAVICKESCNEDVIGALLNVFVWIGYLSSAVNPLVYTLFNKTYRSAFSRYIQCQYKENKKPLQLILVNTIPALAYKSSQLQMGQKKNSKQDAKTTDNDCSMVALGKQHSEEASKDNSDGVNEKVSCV

Q: Which Ki [1] does the source give for COc1cc(CCN)c2c(c1OC)OCC2 here?
A: 6.2 µM

Q: And the EC50 [2]?
A: 3 µM

Q: And the Ki [3]?
A: 2.5 µM

Q: What about the Ki [4] of the same compound?
A: 0.523 µM

Q: What about the Ki [5] of the same compound?
A: 0.311 µM

Q: What about the EC50 [6] of the same compound?
A: 2 µM

Q: What about the Ki [7] of the same compound?
A: 0.118 µM

Q: And the Ki [8]?
A: 1.1 µM

Q: And the ED50 [9]?
A: 57.8 µmol/kg

Q: What about the IC50 [10] of the same compound?
A: > 10 µM

Q: What about the IC50 [11] of the same compound?
A: > 10 µM

Q: For COc1c2c(c(CCN)c3c1OCC3)CCO2, which Ki [12] is on record?
A: 0.335 µM

Q: And the Ki [13]?
A: 4.44 µM

Q: And the EC50 [14]?
A: 2 µM

Q: And the Ki [4]?
A: 0.301 µM

Q: And the Ki [15]?
A: 0.205 µM

Q: And the EC50 [6]?
A: 1 µM

Q: And the Ki [7]?
A: 0.0615 µM

Q: And the Ki [8]?
A: 0.654 µM

Q: And the ED50 [9]?
A: 55.2 µmol/kg

Q: What about the IC50 [10] of the same compound?
A: > 10 µM

Q: And the IC50 [11]?
A: > 10 µM

Q: Which results are given for CCOc1c(OC)cc(CCN)cc1OC?
A: Ki [1]: 6.9 µM; Ki [12]: 0.216 µM; EC50 [14]: 4 µM; Ki [3]: 2.1 µM; Ki [4]: 0.555 µM; EC50 [6]: 2 µM; Ki [7]: 0.177 µM; ED50 [16]: 16.2 µmol/kg; IC50 [10]: > 10 µM; IC50 [11]: > 10 µM

Q: With COc1cc(CCN)cc(OC)c1OC [MESCALINE] as the compound, how does the Ki [1] read?
A: 6.9 µM

Q: And the Ki [12]?
A: 0.551 µM

Q: And the EC50 [14]?
A: 4 µM

Q: And the Ki [3]?
A: 5.5 µM

Q: What about the Ki [4] of the same compound?
A: 0.795 µM

Q: And the EC50 [6]?
A: 24 µM

Q: And the Ki [7]?
A: 0.303 µM

Q: What about the logP [17] of the same compound?
A: 3.15

Q: And the ED50 [16]?
A: 33.5 µmol/kg

Q: What about the IC50 [10] of the same compound?
A: > 10 µM

Q: And the IC50 [11]?
A: > 10 µM
